Experimental data published in ChEMBL document CHEMBL2331116, “Microbial transformation of acetyl-11-keto-β-boswellic acid and their inhibitory activity on LPS-induced NO production” (Bioorg Med Chem Lett, 2013).

What was measured:
RAW264.7 = experiment: Antiinflammatory activity in mouse RAW264.7 cells assessed as inhibition of LPS-induced NO production after 24 hrs; type: functional, cell-based; conditions: RAW264.7, 24 h
[1] = Cytotoxicity against mouse RAW264.7 cells assessed as cell viability at 100 uM after 24 hrs by MTT assay relative to control; type: cell-based; conditions: read-out: Activity

| Compound | IC50 (RAW264.7) [µM] | viability at 24 h, 100 µM [1] [%] |
| --- | --- | --- |
| CC(=O)O[C@@H]1CC[C@@]2(C)[C@@H](C[C@H](O)[C@]3(C)[C@@H]2C(=O)C=C2[C@@H]4[C@@H](C)[C@H](C)CC[C@]4(C)CC[C@]23C)[C@@]1(C)C(=O)O | 1.5 | 84.2 |
| CC(=O)O[C@@H]1CC[C@@]2(C)[C@@H](C[C@H](O)[C@]3(C)[C@@H]2C(=O)C=C2[C@@H]4[C@@H](C)[C@H](C)[C@@H](O)C[C@]4(C)CC[C@]23C)[C@@]1(C)C(=O)O | 87.7 | 104 |
| CC(=O)O[C@@H]1CC[C@@]2(C)[C@@H](C[C@H](O)[C@]3(C)[C@@H]2C(=O)C=C2[C@@H]4[C@@H](C)[C@H](C)C[C@H](O)[C@]4(C)CC[C@]23C)[C@@]1(C)C(=O)O | 76.8 | 89.8 |
| CC(=O)O[C@@H]1CC[C@@]2(C)[C@@H](C[C@H](O)[C@]3(C)[C@@H]2C(=O)C=C2[C@@H]4[C@@H](C)[C@H](C)CC[C@]4(C)[C@H](O)C[C@]23C)[C@@]1(C)C(=O)O | 10.6 | 98.1 |
| CC(=O)O[C@@H]1CC[C@@]2(C)[C@@H](C[C@H](O)[C@]3(C)[C@@H]2C(=O)C=C2[C@@H]4[C@@H](C)[C@H](C)CC[C@]4(C)C[C@H](O)[C@]23C)[C@@]1(C)C(=O)O | > 100 | 108 |
| CC(=O)O[C@@H]1CC[C@@]2(C)[C@@H](CC[C@]3(C)[C@@H]2C(=O)C=C2[C@@H]4[C@@H](C)[C@H](C)[C@@H](O)C[C@]4(C)C[C@H](O)[C@]23C)[C@@]1(C)C(=O)O | > 100 | 134 |
| CC(=O)O[C@@H]1CC[C@@]2(C)[C@@H](C[C@H](O)[C@]3(C)[C@@H]2C(=O)C=C2[C@@H]4[C@@H](C)[C@H](C)[C@@H](O)C[C@]4(C)C[C@H](O)[C@]23C)[C@@]1(C)C(=O)O | > 100 | 103 |
| CC(=O)O[C@@H]1CC[C@@]2(C)[C@@H](CC[C@]3(C)[C@@H]2C(=O)C=C2[C@@H]4[C@@H](C)[C@H](C)CC[C@]4(C)CC[C@]23C)[C@@]1(C)C(=O)O [AKBA] | 15.6 | 81.2 |
| CN(C)c1ccc(O)c2c1C[C@H]1C[C@H]3[C@H](N(C)C)C(O)=C(C(N)=O)C(=O)[C@@]3(O)C(O)=C1C2=O [MINOCYCLINE] | – | 100 |
